In ChEMBL document CHEMBL4507290 (2021):

Key:
[1] = test system: Tyrosine-protein kinase ABL1 (Homo sapiens), P00519 [H396P]; details: Compound concentration 1000.0 nM
[2] = target: ALK tyrosine kinase receptor (Homo sapiens) (UniProt Q9UM73); details: Compound concentration 1000.0 nM
[3] = target: Tyrosine-protein kinase Blk (Homo sapiens) (UniProt P51451); details: Compound concentration 1000.0 nM
[4] = target: Serine/threonine-protein kinase BRSK2 (Homo sapiens) (UniProt Q8IWQ3); details: Compound concentration 1000.0 nM
[5] = target: Calcium/calmodulin-dependent protein kinase type 1G (Homo sapiens) (UniProt Q96NX5); details: Compound concentration 1000.0 nM
[6] = target: Cyclin-dependent kinase 7 (Homo sapiens) (UniProt P50613); details: Compound concentration 1000.0 nM
[7] = target: Cyclin-dependent kinase 9 (Homo sapiens) (UniProt P50750); details: Compound concentration 1000.0 nM
[8] = target: Cyclin-dependent kinase-like 1 (Homo sapiens) (UniProt Q00532); details: Compound concentration 1000.0 nM
[9] = target: Citron Rho-interacting kinase (Homo sapiens) (UniProt O14578); details: Compound concentration 1000.0 nM
[10] = target: Megakaryocyte-associated tyrosine-protein kinase (Homo sapiens) (UniProt P42679); details: Compound concentration 1000.0 nM
[11] = target: Serine/threonine-protein kinase DCLK1 (Homo sapiens) (UniProt O15075); details: Compound concentration 1000.0 nM
[12] = target: Myotonin-protein kinase (Homo sapiens) (UniProt Q09013); details: Compound concentration 1000.0 nM
[13] = target: Epidermal growth factor receptor (Homo sapiens) (UniProt P00533); details: Compound concentration 1000.0 nM
[14] = target: Ephrin type-A receptor 7 (Homo sapiens) (UniProt Q15375); details: Compound concentration 1000.0 nM
[15] = target: Receptor tyrosine-protein kinase erbB-3 (Homo sapiens) (UniProt P21860); details: Compound concentration 1000.0 nM
[16] = target: Receptor tyrosine-protein kinase erbB-4 (Homo sapiens) (UniProt Q15303); details: Compound concentration 1000.0 nM
[17] = target: Mitogen-activated protein kinase 6 (Homo sapiens) (UniProt Q16659); details: Compound concentration 1000.0 nM
[18] = target: Mitogen-activated protein kinase 7 (Homo sapiens) (UniProt Q13164); details: Compound concentration 1000.0 nM
[19] = target: Focal adhesion kinase 1 (Homo sapiens) (UniProt Q05397); details: Compound concentration 1000.0 nM
[20] = target: Fibroblast growth factor receptor 2 (Homo sapiens) (UniProt P21802); details: Compound concentration 1000.0 nM
[21] = target: Fibroblast growth factor receptor 4 (Homo sapiens) (UniProt P22455); details: Compound concentration 1000.0 nM
[22] = test system: Receptor-type tyrosine-protein kinase FLT3 (Homo sapiens), P36888 [K663Q]; details: Compound concentration 1000.0 nM
[23] = target: Rhodopsin kinase GRK7 (Homo sapiens) (UniProt Q8WTQ7); details: Compound concentration 1000.0 nM
[24] = target: Mitogen-activated protein kinase 8 (Homo sapiens) (UniProt P45983); details: Compound concentration 1000.0 nM
[25] = target: Mitogen-activated protein kinase 9 (Homo sapiens) (UniProt P45984); details: Compound concentration 1000.0 nM
[26] = target: Tyrosine-protein kinase Lck (Homo sapiens) (UniProt P06239); details: Compound concentration 1000.0 nM
[27] = target: Leucine-rich repeat serine/threonine-protein kinase 2 (Homo sapiens) (UniProt Q5S007); details: Compound concentration 1000.0 nM
[28] = target: Mitogen-activated protein kinase kinase kinase 13 (Homo sapiens) (UniProt O43283); details: Compound concentration 1000.0 nM
[29] = target: Microtubule-associated serine/threonine-protein kinase 1 (Homo sapiens) (UniProt Q9Y2H9); details: Compound concentration 1000.0 nM
[30] = target: Serine/threonine-protein kinase MRCK beta (Homo sapiens) (UniProt Q9Y5S2); details: Compound concentration 1000.0 nM
[31] = target: Serine/threonine-protein kinase Nek9 (Homo sapiens) (UniProt Q8TD19); details: Compound concentration 1000.0 nM
[32] = target: Serine/threonine-protein kinase OSR1 (Homo sapiens) (UniProt O95747); details: Compound concentration 1000.0 nM
[33] = test system: Phosphatidylinositol 4,5-bisphosphate 3-kinase catalytic subunit alpha isoform (Homo sapiens), P42336 [Q546K]; details: Compound concentration 1000.0 nM
[34] = target: Serine/threonine-protein kinase PknB (Mycobacterium tuberculosis) (UniProt P9WI81); details: Compound concentration 1000.0 nM
[35] = target: Protein kinase C epsilon type (Homo sapiens) (UniProt Q02156); details: Compound concentration 1000.0 nM
[36] = target: Serine/threonine-protein kinase D2 (Homo sapiens) (UniProt Q9BZL6); details: Compound concentration 1000.0 nM
[37] = target: Protein-tyrosine kinase 2-beta (Homo sapiens) (UniProt Q14289); details: Compound concentration 1000.0 nM
[38] = test system: Proto-oncogene tyrosine-protein kinase receptor Ret (Homo sapiens), P07949 [V804L]; details: Compound concentration 1000.0 nM
[39] = target: Serine/threonine-protein kinase SIK2 (Homo sapiens) (UniProt Q9H0K1); details: Compound concentration 1000.0 nM
[40] = target: SNF-related serine/threonine-protein kinase (Homo sapiens) (UniProt Q9NRH2); details: Compound concentration 1000.0 nM
[41] = target: Serine/threonine-protein kinase TNNI3K (Homo sapiens) (UniProt Q59H18); details: Compound concentration 1000.0 nM
[42] = target: High affinity nerve growth factor receptor (Homo sapiens) (UniProt P04629); details: Compound concentration 1000.0 nM
[43] = target: Tyrosine-protein kinase receptor TYRO3 (Homo sapiens) (UniProt Q06418); details: Compound concentration 1000.0 nM
[44] = target: Tyrosine-protein kinase ZAP-70 (Homo sapiens) (UniProt P43403); details: Compound concentration 1000.0 nM
[45] = target: Beta-2 adrenergic receptor (Homo sapiens) (UniProt P07550); details: Compound concentration 10.0 uM

Sequence of Serine/threonine-protein kinase PknB (Mycobacterium tuberculosis) (P9WI81 whole entry): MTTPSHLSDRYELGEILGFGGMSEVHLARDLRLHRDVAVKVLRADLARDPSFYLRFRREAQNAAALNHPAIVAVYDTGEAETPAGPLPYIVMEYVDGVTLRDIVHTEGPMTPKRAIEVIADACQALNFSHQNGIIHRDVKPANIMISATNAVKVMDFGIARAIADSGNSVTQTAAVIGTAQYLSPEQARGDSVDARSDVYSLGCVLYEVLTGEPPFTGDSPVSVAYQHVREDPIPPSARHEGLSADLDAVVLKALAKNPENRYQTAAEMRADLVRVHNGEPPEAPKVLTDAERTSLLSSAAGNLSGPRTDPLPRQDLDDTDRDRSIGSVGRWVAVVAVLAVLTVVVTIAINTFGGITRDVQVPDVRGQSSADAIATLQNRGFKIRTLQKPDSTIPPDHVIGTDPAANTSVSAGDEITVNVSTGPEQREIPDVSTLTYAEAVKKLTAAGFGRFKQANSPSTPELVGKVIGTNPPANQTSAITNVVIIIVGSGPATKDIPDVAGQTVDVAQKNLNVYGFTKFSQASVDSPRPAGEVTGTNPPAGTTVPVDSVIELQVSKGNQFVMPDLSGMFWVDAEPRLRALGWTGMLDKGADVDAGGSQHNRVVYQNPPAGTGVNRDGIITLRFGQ
Sequence of Fibroblast growth factor receptor 4 (Homo sapiens) (P22455 22-802 limits assumed): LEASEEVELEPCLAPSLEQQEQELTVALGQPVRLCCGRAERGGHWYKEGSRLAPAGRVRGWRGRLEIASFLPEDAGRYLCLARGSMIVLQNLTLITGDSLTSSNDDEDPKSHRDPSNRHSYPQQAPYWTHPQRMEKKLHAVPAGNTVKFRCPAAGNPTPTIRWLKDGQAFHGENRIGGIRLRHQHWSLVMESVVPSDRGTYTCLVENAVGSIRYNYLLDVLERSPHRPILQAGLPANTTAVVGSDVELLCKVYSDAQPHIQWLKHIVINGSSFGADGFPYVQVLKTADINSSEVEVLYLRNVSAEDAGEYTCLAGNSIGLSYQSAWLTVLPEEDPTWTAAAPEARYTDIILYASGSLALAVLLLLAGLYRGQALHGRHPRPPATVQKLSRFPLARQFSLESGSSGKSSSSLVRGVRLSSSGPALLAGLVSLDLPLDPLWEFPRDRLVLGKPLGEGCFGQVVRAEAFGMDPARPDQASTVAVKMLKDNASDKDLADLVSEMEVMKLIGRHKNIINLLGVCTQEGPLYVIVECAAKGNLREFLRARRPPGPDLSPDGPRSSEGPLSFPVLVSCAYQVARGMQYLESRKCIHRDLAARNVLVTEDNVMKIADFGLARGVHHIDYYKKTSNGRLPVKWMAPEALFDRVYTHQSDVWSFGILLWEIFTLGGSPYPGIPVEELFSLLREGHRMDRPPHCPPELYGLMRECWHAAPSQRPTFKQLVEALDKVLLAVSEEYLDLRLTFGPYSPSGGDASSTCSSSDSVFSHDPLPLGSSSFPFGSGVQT
Sequence of Cyclin-dependent kinase 7 (Homo sapiens) (P50613 whole entry): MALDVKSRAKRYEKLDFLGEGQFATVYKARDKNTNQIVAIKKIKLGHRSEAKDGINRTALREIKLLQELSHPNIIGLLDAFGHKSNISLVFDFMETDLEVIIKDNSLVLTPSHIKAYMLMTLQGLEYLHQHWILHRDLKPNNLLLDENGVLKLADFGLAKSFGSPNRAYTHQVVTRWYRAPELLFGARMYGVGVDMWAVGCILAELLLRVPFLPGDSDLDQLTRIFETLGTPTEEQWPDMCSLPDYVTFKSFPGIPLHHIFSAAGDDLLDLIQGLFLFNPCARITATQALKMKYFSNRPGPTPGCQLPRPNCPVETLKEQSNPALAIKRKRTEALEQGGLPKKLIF
Sequence of Cyclin-dependent kinase 9 (Homo sapiens) (P50750 whole entry): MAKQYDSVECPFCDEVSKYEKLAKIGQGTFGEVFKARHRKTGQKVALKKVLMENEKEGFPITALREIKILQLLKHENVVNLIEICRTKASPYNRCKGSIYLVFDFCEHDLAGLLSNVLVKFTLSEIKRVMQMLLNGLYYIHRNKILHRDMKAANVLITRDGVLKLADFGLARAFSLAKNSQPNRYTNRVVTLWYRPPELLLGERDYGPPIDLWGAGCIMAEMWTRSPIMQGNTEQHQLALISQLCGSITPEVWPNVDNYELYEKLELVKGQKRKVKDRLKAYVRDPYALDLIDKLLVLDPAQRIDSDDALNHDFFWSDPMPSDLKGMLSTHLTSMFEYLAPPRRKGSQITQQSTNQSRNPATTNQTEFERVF
Sequence of Tyrosine-protein kinase Blk (Homo sapiens) (P51451 2-505 limits assumed): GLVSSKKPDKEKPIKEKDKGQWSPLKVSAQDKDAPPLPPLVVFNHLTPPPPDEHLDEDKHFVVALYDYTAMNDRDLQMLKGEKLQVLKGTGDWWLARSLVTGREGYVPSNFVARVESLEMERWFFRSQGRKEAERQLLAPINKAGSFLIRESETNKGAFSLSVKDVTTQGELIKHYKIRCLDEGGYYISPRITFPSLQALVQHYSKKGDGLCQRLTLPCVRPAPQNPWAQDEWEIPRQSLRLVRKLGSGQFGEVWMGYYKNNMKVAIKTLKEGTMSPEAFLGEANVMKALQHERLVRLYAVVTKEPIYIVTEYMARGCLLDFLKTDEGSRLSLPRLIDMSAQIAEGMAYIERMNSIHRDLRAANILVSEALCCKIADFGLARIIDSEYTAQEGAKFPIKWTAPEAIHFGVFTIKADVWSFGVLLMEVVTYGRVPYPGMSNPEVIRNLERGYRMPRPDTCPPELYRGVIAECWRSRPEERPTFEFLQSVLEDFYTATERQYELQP
Sequence of Serine/threonine-protein kinase Nek9 (Homo sapiens) (Q8TD19 whole entry): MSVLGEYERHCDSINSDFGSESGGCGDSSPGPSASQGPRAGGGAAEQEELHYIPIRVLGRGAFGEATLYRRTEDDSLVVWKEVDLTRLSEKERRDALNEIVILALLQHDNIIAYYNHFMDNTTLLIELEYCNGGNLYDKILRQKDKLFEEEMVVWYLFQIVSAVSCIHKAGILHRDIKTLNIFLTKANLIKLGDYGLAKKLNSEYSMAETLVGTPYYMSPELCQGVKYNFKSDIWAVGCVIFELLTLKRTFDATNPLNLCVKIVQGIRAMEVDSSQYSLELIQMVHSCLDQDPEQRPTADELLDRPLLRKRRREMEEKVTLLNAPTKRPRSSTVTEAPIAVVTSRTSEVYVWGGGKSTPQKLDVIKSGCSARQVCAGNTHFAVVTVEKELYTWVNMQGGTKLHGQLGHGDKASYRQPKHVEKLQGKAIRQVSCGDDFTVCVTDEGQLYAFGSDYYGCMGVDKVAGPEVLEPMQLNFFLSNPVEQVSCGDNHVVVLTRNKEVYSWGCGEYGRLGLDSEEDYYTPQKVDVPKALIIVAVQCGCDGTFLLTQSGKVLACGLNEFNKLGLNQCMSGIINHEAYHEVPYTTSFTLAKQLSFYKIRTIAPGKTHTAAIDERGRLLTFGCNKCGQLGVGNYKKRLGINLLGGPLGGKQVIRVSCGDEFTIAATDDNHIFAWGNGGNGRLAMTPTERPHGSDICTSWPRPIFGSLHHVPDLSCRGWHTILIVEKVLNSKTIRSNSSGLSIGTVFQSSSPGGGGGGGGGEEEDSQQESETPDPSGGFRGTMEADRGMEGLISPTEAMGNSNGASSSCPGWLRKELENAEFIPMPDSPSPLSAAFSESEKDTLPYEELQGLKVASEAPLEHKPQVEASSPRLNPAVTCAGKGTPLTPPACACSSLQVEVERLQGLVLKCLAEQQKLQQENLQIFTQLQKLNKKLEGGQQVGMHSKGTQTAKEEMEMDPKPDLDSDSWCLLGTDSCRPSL
Sequence of Proto-oncogene tyrosine-protein kinase receptor Ret (Homo sapiens), P07949 [V804L] (P07949 whole entry V804L): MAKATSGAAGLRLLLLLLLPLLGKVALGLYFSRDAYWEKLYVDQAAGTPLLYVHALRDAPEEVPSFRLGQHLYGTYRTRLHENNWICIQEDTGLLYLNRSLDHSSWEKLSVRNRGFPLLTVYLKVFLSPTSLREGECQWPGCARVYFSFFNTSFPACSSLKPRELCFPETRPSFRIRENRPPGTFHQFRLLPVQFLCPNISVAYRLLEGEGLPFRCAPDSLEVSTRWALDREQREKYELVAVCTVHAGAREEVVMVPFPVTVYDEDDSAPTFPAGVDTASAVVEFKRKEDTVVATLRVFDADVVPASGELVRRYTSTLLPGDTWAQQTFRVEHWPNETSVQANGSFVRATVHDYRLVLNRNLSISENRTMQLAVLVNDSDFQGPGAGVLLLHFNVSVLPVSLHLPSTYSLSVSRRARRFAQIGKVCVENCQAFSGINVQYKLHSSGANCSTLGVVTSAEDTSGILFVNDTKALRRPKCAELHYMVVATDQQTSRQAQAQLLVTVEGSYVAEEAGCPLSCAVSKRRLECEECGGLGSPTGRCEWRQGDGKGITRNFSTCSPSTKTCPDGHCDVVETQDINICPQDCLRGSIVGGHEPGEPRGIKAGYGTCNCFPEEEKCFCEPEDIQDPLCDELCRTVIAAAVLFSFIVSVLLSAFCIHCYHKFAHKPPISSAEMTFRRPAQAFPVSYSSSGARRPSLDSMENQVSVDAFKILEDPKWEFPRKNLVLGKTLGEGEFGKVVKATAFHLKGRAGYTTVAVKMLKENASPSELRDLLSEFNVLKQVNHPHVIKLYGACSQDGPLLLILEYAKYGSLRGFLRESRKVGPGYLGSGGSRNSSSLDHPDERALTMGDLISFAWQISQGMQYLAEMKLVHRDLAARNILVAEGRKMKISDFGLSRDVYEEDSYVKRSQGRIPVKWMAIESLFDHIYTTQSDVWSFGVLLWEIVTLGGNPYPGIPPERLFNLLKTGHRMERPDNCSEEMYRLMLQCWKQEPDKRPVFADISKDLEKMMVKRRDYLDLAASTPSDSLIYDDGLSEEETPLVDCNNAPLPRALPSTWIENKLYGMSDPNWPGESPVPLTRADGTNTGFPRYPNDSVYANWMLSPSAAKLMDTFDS

CN([C@@H]1CCc2c(CC(=O)O)c3cc(S(C)(=O)=O)ccc3n2C1)S(=O)(=O)c1ccc(F)cc1
inactive: residual activity [1] 55% | residual activity [2] 80% | residual activity [3] 99% | residual activity [4] 100% | residual activity [5] 100% | residual activity [6] 87% | residual activity [7] 100% | residual activity [8] 100% | residual activity [9] 96% | residual activity [10] 100% | residual activity [11] 79% | residual activity [12] 100% | residual activity [13] 100% | residual activity [14] 100% | residual activity [15] 100% | residual activity [16] 100% | residual activity [17] 100% | residual activity [18] 96% | residual activity [19] 99% | residual activity [20] 89% | residual activity [21] 99% | residual activity [22] 100% | residual activity [23] 97% | residual activity [24] 90% | residual activity [25] 100% | residual activity [26] 100% | residual activity [27] 100% | residual activity [28] 100% | residual activity [29] 93% | residual activity [30] 100% | residual activity [31] 81% | residual activity [32] 100% | residual activity [33] 100% | residual activity [34] 100% | residual activity [35] 87% | residual activity [36] 100% | residual activity [37] 100% | residual activity [38] 100% | residual activity [39] 93% | residual activity [40] 100% | residual activity [41] 100% | residual activity [42] 100% | residual activity [43] 91% | residual activity [44] 100% | inhibition [45] 0.0525%

CN([C@@H]1CCc2c(CC(=O)O)c3ccccc3n2C1)S(=O)(=O)c1ccc(F)cc1 [MK-7246]
inactive: residual activity [1] 100% | residual activity [2] 78% | residual activity [3] 100% | residual activity [4] 100% | residual activity [5] 100% | residual activity [6] 82% | residual activity [7] 100% | residual activity [8] 100% | residual activity [9] 100% | residual activity [10] 100% | residual activity [11] 82% | residual activity [12] 100% | residual activity [13] 95% | residual activity [14] 100% | residual activity [15] 100% | residual activity [16] 100% | residual activity [17] 100% | residual activity [18] 100% | residual activity [19] 100% | residual activity [20] 80% | residual activity [21] 91% | residual activity [22] 100% | residual activity [23] 93% | residual activity [24] 77% | residual activity [25] 98% | residual activity [26] 100% | residual activity [27] 100% | residual activity [28] 100% | residual activity [29] 100% | residual activity [30] 100% | residual activity [31] 100% | residual activity [32] 100% | residual activity [33] 100% | residual activity [34] 100% | residual activity [35] 94% | residual activity [36] 100% | residual activity [37] 100% | residual activity [38] 99% | residual activity [39] 99% | residual activity [40] 100% | residual activity [41] 100% | residual activity [42] 100% | residual activity [43] 72% | residual activity [44] 100% | inhibition [45] -7.68%
